Assay results reported in patent US9744164B2, “Neuroprotective polyphenol analogs” (Salk Institute for Biological Studies, priority 2011, dated 2017).

What was measured:
HT22 cells = test: in vitro ischemia assay (HT22 cell IAA assay); type: cell-based, mouse; settings: for EC50 in vitro ischemia: HT22 cells, 20 μM IAA 2 hr, viability by MTT after 24 hr, 'no' = no protection; for improvement of neuroprotective activity/potency over Fisetin: relative to Fisetin, in vitro ischemia
Description: For these studies, cultured HT22 mouse hippocampal cells were used as an in vitro stroke assay. HT22 cells were treated with iodoacetic acid (IAA), an irreversible inhibitor of glyceraldehyde 3-phosphate dehydrogenase (G3PDH) for 2 hr alone or in the presence of varying concentrations of Fisetin. G3PDH is an enzyme of the glycolysis pathway, which catalyzes the synthesis of 1,3-bisphosphoglycerate, a “high energy” intermediate used for the synthesis of ATP. Cell survival was measured using a standard colorimetric MTT (3-(4,5-dimethylthiazol-2-yl)-2,5-diphenyltetrazolium bromide) assay for cell survival MTT is a pale yellow substrate that is cleaved by living cells to yield a dark blue formazan product.
Cytotoxicity assay. Cell viability was determined by a modified version of 3-(4,5-dimethylthiazol-2-yl)-2,5-diphenyl tetrazolium bromide (MTT) assay based on the standard procedure (Maher, et al., Brain Research. (2007), supra). Cells were seeded onto 96-well microtiter plates at a density of 5×10^3 cells per well. For the in vitro ischemia assay, the next day, the medium was replaced with DMEM supplemented with 7.5% DFCS and the cells were treated with 20 μM iodoacetic acid (IAA) alone or in the presence of the different derivatives. After 2 hr the medium in each well was aspirated and replaced with fresh medium without IAA but containing the derivatives. 20 hr later, the medium in each well was aspirated and replaced with fresh medium containing 2.5 μg/ml MTT. After 4 hr of incubation at 37° C., the cells were solubilized with 100 μl of a solution containing 50% dimethylformamide and 20% SDS (pH 4.7). The absorbance at 570 nm was measured on the following day with a microplate reader (Molecular Devices). Results were confirmed by visual inspection of the wells. Controls included compound alone to test for toxicity and compound with no cells to test for interference with the assay chemistry.
For a primary screen, an in vitro ischemia model in combination with the HT22 nerve cell line (Maher, et al., Brain Research. (2007) 1173, 117-125) was chosen. […] To induce ischemia in the HT22 cells we used iodoacetic acid (IAA), a well-known, irreversible inhibitor of the glycolytic enzyme glyceraldehyde 3-phosphate dehydrogenase (G3PDH) (Winkler, et al., Exp. Eye Res. (2003) 76, 715-723). IAA has been used in a number of other studies to induce ischemia in nerve cells (Reshef, et al., Neurosci. Lett. (1997) 238, 37-40; Sperling, et al., Neursci. Lett. (2003) 351, 137-140; Rego, et al., Neurochem. Res. (1999) 24, 351-358; Sigalov, et al,. J. Mol. Neurosci. (2000) 15, 147-154; and Reiner, et al., Neurosci. Lett. (1990) 119, 175-178), including several recent screens for neuroprotective molecules (Biraboneye, et al., J. Med. Chem. (2009) 52 (14), 4358-4369; Biraboneye, et al., Chem. Med. Chem. (2010) 5 (1), 79-85). The changes following IAA treatment of neural cells are very similar to those seen in animal models of ischemic stroke (Lipton, et al., Physiol. Rev. (1999) 79, 1431-1568) and include alterations in membrane potential (Reiner, et al., Neurosci. Lett. (1990) 119, 175-178), breakdown of phospholipids (Taylor, et al., J. Pharmacol. Exp. Ther. (1996) 276, 1224-1231), loss of ATP (Winkler, et al., Exp. Eye Res. (2003) 76, 715-723; Sperling, et al., Neursci. Lett. (2003) 351, 137-140) and an increase in reactive oxygen species (ROS) (Taylor, et al., J. Pharmacol. Exp. Ther. (1996), supra; and Sperling, et al., Neursci. Lett. (2003) 351, 137-140).
The roles of the four different hydroxyl groups in the activity of Fisetin were studied. […] Cell viability was determined after 24 hr by the MTT assay. The ability to maintain GSH (GSH) was determined by treating HT22 cells with different doses of each derivative (1-10 μM) in the presence of 5 mM glutamate. After 24 hr cell extracts were prepared and analyzed for total GSH. Fisetin (10 μM) was used as a positive control. […]

N9 microglial cells = test: anti-inflammatory assay, LPS-induced microglial activation (NO release); type: cell-based, mouse; settings: bacterial lipopolysaccharide, derivative 1-10 μM, 24 hr
Description: Anti-inflammatory assay. Mouse N9 microglial cells plated in DME with 7.5% DFCS were treated with 10 μg/ml bacterial lipopolysaccharide (Sigma) alone or in the presence of the Fisetin derivatives (1-10 μM) or Fisetin (10 μM) as a positive control. After 24 hr the medium was removed, spun briefly to remove floating cells and 100 μl assayed for NO using 100 μl of the Griess Reagent (Sigma) in a 96 well plate. After incubation for 10 min at room temperature the absorbance at 550 nm was read on a microplate reader.
Three secondary screens allowed assessment of three key activities of Fisetin that are highly relevant to stroke, as well as other neurological disorders: maintenance of glutathione (GSH), the major endogenous cellular antioxidant, inhibition of LPS-induced microglial activation, an indicator of anti-inflammatory activity and PC12 cell differentiation, a measure of neurotrophic activity. All of these activities are relevant to the nerve cell loss seen in stroke (Gelderblom, et al., Stroke. 2009, 40 (5), 1849-1857; Pandya, et al., Cent. Nerv. Syst. Agents. Med. Chem. (2011) Apr. 27; Lewerenz, et al., J. Neurochem. (2010) 113 (2), 502-504). […] To assess GSH maintenance, total intracellular GSH levels after a 24 hr treatment with the compound both in the absence and presence of glutamate, an inducer of GSH loss and oxidative stress (Tan, et al., Curr. Top. Med. Chem. (2001) 1, 497-506; Maher, et al., Free Radical Research. (2006) 40 (10), 1105-1111) was measured Inhibition of LPS-induced microglial activation was determined by treating N9 mouse microglial cells with LPS alone and in the presence of the compounds and assaying NO release into the medium 24 hr later (Zheng, et al., Int. Immunopharmacol. (2008) 8, (3), 484-494). PC12 cell differentiation was determined by treating PC12 cells with the compounds and looking at neurite outgrowth after 24 hr. In all cases, Fisetin was used as a positive control (Sagara, et al., J. Neurochem. (2004) 90, 1144-1155).
The roles of the four different hydroxyl groups in the activity of Fisetin were studied. […] Cell viability was determined after 24 hr by the MTT assay. The ability to maintain GSH (GSH) was determined by treating HT22 cells with different doses of each derivative (1-10 μM) in the presence of 5 mM glutamate. After 24 hr cell extracts were prepared and analyzed for total GSH. Fisetin (10 μM) was used as a positive control. The ability to induce PC12 cell differentiation (PC12 diff'n) was determined by treating PC12 cells in N2 medium with different doses of each derivative (1-10 μM) for 24 hr. Differentiation was assessed by visual inspection with Fisetin (10 μM) as a positive control. Anti-inflammatory activity (microglia) was assessed in N9 microglial cells treated with bacterial lipopolysaccharide alone or in the presence different doses of each derivative (1-10 μM) for 24 hr. Fisetin was used as a positive control. TEAC values, a measure of direct antioxidant activity, were determined using the ABTS+ decolorization assay.

Compound | EC50 in vitro ischemia (HT22 cells) | microglia (anti-inflammatory activity) (N9 microglial cells) [%] | improvement of neuroprotective activity/potency over Fisetin (HT22 cells) | enhancement of neuroprotective activity relative to CMS-027 (HT22 cells; relative to CMS-027) [fold] | further enhancement of neuroprotective activity (HT22 cells; benzene ring added to A ring, relative to CMS-04P) [fold]
COc1ccc(-c2cc(OC)c3ccccc3n2)cc1O [CMS-001, 4-methoxy-2-(3-hydroxy,4-methoxyphenyl)quinoline] | no | 69 | – | – | –
O=c1cc(-c2ccc(O)c(O)c2)oc2c1ccc1ccccc12 [CMS-02P, reference compound] | – | 55 | ~40 fold | – | –
CCOc1ccc(-c2cc(OC)c3ccccc3n2)cc1OCC [CMS-004, 4-methoxy-2-(3,4-diethoxyphenyl)quinoline] | no | 76 | – | – | –
CCOc1ccc(/C=C/C(=O)c2cc(C)c(C)cc2O)cc1OCC [CMS-013, (E)-3-(3,4-diethoxyphenyl)-1-(2-hydroxy-4,5-dimethylphenyl)prop-2-en-1-one] | no | 56 | – | – | –
CCOc1ccc(-c2cc(=O)c3cc(C)c(C)cc3o2)cc1OCC [CMS-018, 2-(3,4-diethoxyphenyl)-6,7-dimethyl-4H-chromen-4-one] | no | 2 | – | – | –
COc1cc(-c2ccc(O)cc2)nc2ccccc12 [CMS-022, 4-methoxy-2-(4-hydroxyphenyl)quinoline] | no | 4 | – | – | –
Cc1cc2oc(-c3ccc(O)c(O)c3)cc(=O)c2cc1C [CMS-028, 2-(3,4-dihydroxyphenyl)-6,7-dimethyl-4H-chromen-4-one] | – | 93 | – | 2 | –
CCOc1ccc(/C=C/C(=O)c2ccc3ccccc3c2O)cc1OCC [CMS-032, (E)-3-(3,4-diethoxyphenyl)-1-(1-hydroxynaphthalen-2-yl)prop-2-en-1-one] | no | 5 | – | – | –
CCOc1ccc(-c2cc(=O)c3ccc4ccccc4c3o2)cc1OCC [CMS-038, 2-(3,4-diethoxyphenyl)-4H-benzo[h]chromen-4-one] | no | 2 | – | – | –
O=c1c(O)c(-c2ccc(O)c(O)c2)oc2c1ccc1ccccc12 [CMS-040, 2-(3,4-dihydroxyphenyl)-3-hydroxy-4H-benzo[h]chromen-4-one] | – | 91 | – | – | ~5.5
COc1cc(-c2ccc(N3CCCC3)cc2)nc2ccccc12 [CMS-110, 4-methoxy-2-(4-(pyrrolidin-1-yl)phenyl)quinoline] | no | 67 | – | – | –
COc1cc(-c2ccc([N+](=O)[O-])c(O)c2)nc2ccccc12 [CMS-111, 4-methoxy-2-(3-hydroxy-4-nitrophenyl)quinoline] | no | 25 | – | – | –
O=c1cc(-c2ccc(O)c(O)c2)oc2ccccc12 [PM-001] | – | – | 6 fold | – | –
O=c1cc(-c2ccc(O)c(O)c2)oc2ccc3ccccc3c12 [PM-003] | – | – | ~40 fold | – | –
Cc1ccc2oc(-c3ccc(O)c(O)c3)c(O)c(=O)c2c1 [PM-010, 2-(3,4-dihydroxyphenyl)-3-hydroxy-6-methyl-4H-chromen-4-one] | – | – | 10-100 fold | – | –
